Source: patent US20070225316A1, “Methods and compositions for treating schizophrenia” (priority 2006, published 2007)
Counter-ions that a name gives are not always drawn.

System: NMDA receptors (NMDA-induced currents)
Assay: Patch clamp (whole cell) registration of NMDA-induced currents in cultured rat hippocampus neurons
Assay type: cell-based
Settings: for Change of the blocking effect of MK-801 on NMDA-induced currents after preliminary application of the substance: result in words
Procedure: Experiments were carried out by the patch clamp method on freshly isolated neurons of a rat brain cortex or on cultured rat hippocampus neurons. Neurons for cultivation were obtained from the hippocampus of neonatal rats (1-2 days) by the method of trypsinization followed by pipetting. Cells suspended in culture medium were placed in 3 mL quantities into the wells of a 6-well planchette (Nunc) or into Petri dishes, in which glasses coated with poly-L-lysine had first been placed. The cell concentration as a rule was […]. The culture medium consisted of Eagle's minimum medium and a DME/F12 medium (1:1) supplemented with 10% calf serum, glutamine (2 mM), gentamycin (50 μg/mL), glucose (15 mM) and 20 mM KCl, with the pH brought to 7-7.4 using NaHCO3. Planchettes containing cultures were placed in a CO2— incubator at 37° C. and 100% humidity. Cytosine arabinoside 10-20 μL was added on the second to third day of cultivation. After 6-7 days of cultivation 1 mg/mL glucose was added to the medium, or the medium was exchanged, depending on the following experiment. The cultured hippocampus neurons were placed in a 0.4 mL working chamber. The working solution had the following composition (mM): NaCl 150.0, KCl 5.0, CaCl2 2.6, MgSO4×7H2O 2.0, HEPES 10.0, glucose 15.0, pH 7.36.
Transmembrane currents produced by application of NMDA were registered by the patch clamp electrophysiological method in the whole cell configuration. Application of substances was done by the method of rapid superfusion. Currents were registered with the aid of borosilicate microelectrodes (resistance […]) filled with the following composition (mM): KCl 100.0, EGTA 11.0, CaCl2 1.0, MgCl2 1.0, HEPES 10.0, ATP 5.0 pH 7.2. An EPC-9 instrument (HEKA, Germany) was used for registration. Currents were recorded on the hard disk of a Pentium-IV PC using the pulse program, which is also purchased from HEKA. The results were analyzed with the aid of the Pulsefit program (HEKA).

| Compound | IC50 (cultured rat hippocampus neurons, range and average printed, dihydrochloride, read-out: IC50 of blocking effect on currents caused by application of NMDA) [µM] | Blockade of NMDA-induced currents (%) (dimebon alone at 10 μM) | Blockade of NMDA-induced currents (%) by MK-801 after preliminary perfusion with dimebon (preliminary perfusion with dimebon 10 μM, then MK-801) [%] | Change of the blocking effect of MK-801 on NMDA-induced currents after preliminary application of the substance |
| --- | --- | --- | --- | --- |
| Cc1ccc2c(c1)c1c(n2CCc2ccc(C)nc2)CCN(C)C1 [Dimebon, 2,8-dimethyl-5-[2-(6-methylpyridyl-3)ethyl]-2,3,4,5-tetrahydro-1H-pyrido[4,3-b]indole dihydrochloride] | 7.7 ± 1.9 | By 50-70% at 10 μM | 40±18 | capable of reducing the blocking effect of MK-801 |
| N[C@H](CCCP(=O)(O)O)C(=O)O [D-AP5, D-2-amino-5-phosphonovaleric acid] |  |  |  | did not decrease the blocking effect of MK-801 |
